Data from PubChem BioAssay (NCI).
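Each compound was tested at five concentrations against cells in 96-well plates for 48 hours. At the GI50, growth is halved. At the TGI there is no net growth.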

Key:
Experiment in all cases: NCI-60 cell line screen, 48 h
NCI-H226 lung = tested on: NCI-H226 lung
SF-295 CNS = tested on: SF-295 CNS
HCC-2998 colon = tested on: HCC-2998 colon
UACC-62 melanoma = tested on: UACC-62 melanoma
NCI-H522 lung = tested on: NCI-H522 lung
NCI-H23 lung = tested on: NCI-H23 lung
HCT-15 colon = tested on: HCT-15 colon
TK-10 renal = tested on: TK-10 renal
MCF7 breast = tested on: MCF7 breast
MDA-MB-435 = tested on: MDA-MB-435
MDA-MB-231 breast = tested on: MDA-MB-231 breast
UO-31 renal = tested on: UO-31 renal
U251 CNS = tested on: U251 CNS
LOX IMVI melanoma = tested on: LOX IMVI melanoma
OVCAR-5 ovarian = tested on: OVCAR-5 ovarian
EKVX NSCLC = tested on: EKVX NSCLC
HCT-116 colon = tested on: HCT-116 colon
CCRF-CEM leukemia = tested on: CCRF-CEM leukemia
A549 NSCLC = tested on: A549 NSCLC
M14 melanoma = tested on: M14 melanoma
OVCAR-4 ovarian = tested on: OVCAR-4 ovarian
ACHN renal = tested on: ACHN renal
HS 578T breast = tested on: HS 578T breast
COLO 205 colon = tested on: COLO 205 colon
HOP-62 NSCLC = tested on: HOP-62 NSCLC
SK-MEL-5 melanoma = tested on: SK-MEL-5 melanoma
A498 renal = tested on: A498 renal
KM12 colon = tested on: KM12 colon
SNB-19 CNS = tested on: SNB-19 CNS
HT29 colon = tested on: HT29 colon
HOP-92 NSCLC = tested on: HOP-92 NSCLC
SK-OV-3 ovarian = tested on: SK-OV-3 ovarian
SW-620 colon = tested on: SW-620 colon
SNB-75 CNS = tested on: SNB-75 CNS
SK-MEL-28 melanoma = tested on: SK-MEL-28 melanoma
NCI-H460 lung = tested on: NCI-H460 lung
CAKI-1 renal = tested on: CAKI-1 renal
SF-539 CNS = tested on: SF-539 CNS
IGROV1 ovarian = tested on: IGROV1 ovarian
DU-145 prostate = tested on: DU-145 prostate
MALME-3M melanoma = tested on: MALME-3M melanoma
MOLT-4 leukemia = tested on: MOLT-4 leukemia
786-0 renal = tested on: 786-0 renal
OVCAR-3 ovarian = tested on: OVCAR-3 ovarian
SF-268 CNS = tested on: SF-268 CNS
SN12C renal = tested on: SN12C renal
OVCAR-8 ovarian = tested on: OVCAR-8 ovarian
BT-549 breast = tested on: BT-549 breast
PC-3 prostate = tested on: PC-3 prostate
RPMI-8226 leukemia = tested on: RPMI-8226 leukemia
UACC-257 melanoma = tested on: UACC-257 melanoma
RXF 393 renal = tested on: RXF 393 renal
NCI/ADR-RES ovarian = tested on: NCI/ADR-RES ovarian
SK-MEL-2 melanoma = tested on: SK-MEL-2 melanoma
T-47D breast = tested on: T-47D breast
HL-60(TB) leukemia = tested on: HL-60(TB) leukemia
K-562 leukemia = tested on: K-562 leukemia

`Cc1ccccc1NC(=O)NC(CC(N)=O)c1ccc2c(c1)nc(-c1cccc(Oc3ccc(C(C)(C)C)cc3)c1)n2CCCN1CCCCC1C` (stereo not given) was tested, and the GI50 (NCI-H226 lung) was 7.9 µM, the TGI (NCI-H226 lung) was 25.7 µM and the GI50 (SF-295 CNS) was 4.25 µM. For the same compound, the TGI (SF-295 CNS) was 9.57 µM, the GI50 (HCC-2998 colon) was 2.23 µM and the TGI (HCC-2998 colon) was 5.04 µM. For the same compound, the GI50 (UACC-62 melanoma) was 1.71 µM, the TGI (UACC-62 melanoma) was 3.22 µM and the GI50 (NCI-H522 lung) was 1.88 µM. It also gave a TGI (NCI-H522 lung) of 3.57 µM, a GI50 (NCI-H23 lung) of 4.89 µM and a TGI (NCI-H23 lung) of 9.91 µM. For the same compound, the GI50 (HCT-15 colon) was 12.5 µM, the TGI (HCT-15 colon) was 27.1 µM and the GI50 (TK-10 renal) was 4.28 µM. For the same compound, the TGI (TK-10 renal) was 9.01 µM, the GI50 (MCF7 breast) was 1.92 µM and the TGI (MCF7 breast) was 3.54 µM. The GI50 (MDA-MB-435) was 1.72 µM, the TGI (MDA-MB-435) was 3.3 µM and the GI50 (MDA-MB-231 breast) was 2.34 µM. The TGI (MDA-MB-231 breast) was 5.27 µM, the GI50 (UO-31 renal) was 16.4 µM and the TGI (UO-31 renal) was 31.9 µM. It also gave a GI50 (U251 CNS) of 1.75 µM, a TGI (U251 CNS) of 3.23 µM and a GI50 (LOX IMVI melanoma) of 1.67 µM. It also gave a TGI (LOX IMVI melanoma) of 3.14 µM, a GI50 (OVCAR-5 ovarian) of 5.21 µM and a TGI (OVCAR-5 ovarian) of 12 µM. It also gave a GI50 (EKVX NSCLC) of 5.37 µM, a TGI (EKVX NSCLC) of 11.5 µM and a GI50 (HCT-116 colon) of 1.71 µM. The TGI (HCT-116 colon) was 3.16 µM, the GI50 (CCRF-CEM leukemia) was 3.03 µM and the TGI (CCRF-CEM leukemia) was 15.1 µM. For the same compound, the GI50 (A549 NSCLC) was 5.54 µM, the TGI (A549 NSCLC) was 14.6 µM and the GI50 (M14 melanoma) was 1.83 µM. The TGI (M14 melanoma) was 3.44 µM, the GI50 (OVCAR-4 ovarian) was 3.07 µM and the TGI (OVCAR-4 ovarian) was 8.39 µM. For the same compound, the GI50 (ACHN renal) was 9.08 µM, the TGI (ACHN renal) was 22.3 µM and the GI50 (HS 578T breast) was 5.58 µM. The TGI (HS 578T breast) was 16.3 µM, the GI50 (COLO 205 colon) was 1.82 µM and the TGI (COLO 205 colon) was 3.35 µM. It also gave a GI50 (HOP-62 NSCLC) of 1.97 µM, a TGI (HOP-62 NSCLC) of 4.46 µM and a GI50 (SK-MEL-5 melanoma) of 1.73 µM. For the same compound, the TGI (SK-MEL-5 melanoma) was 3.19 µM, the GI50 (A498 renal) was 5.91 µM and the TGI (A498 renal) was 13.4 µM. For the same compound, the GI50 (KM12 colon) was 2.34 µM, the TGI (KM12 colon) was 5.63 µM and the GI50 (SNB-19 CNS) was 1.97 µM. For the same compound, the TGI (SNB-19 CNS) was 4.27 µM, the GI50 (HT29 colon) was 1.95 µM and the TGI (HT29 colon) was 3.89 µM. For the same compound, the GI50 (HOP-92 NSCLC) was 1.94 µM, the TGI (HOP-92 NSCLC) was 7.33 µM and the GI50 (SK-OV-3 ovarian) was 10.9 µM. The TGI (SK-OV-3 ovarian) was 23.9 µM, the GI50 (SW-620 colon) was 1.84 µM and the TGI (SW-620 colon) was 3.49 µM. The GI50 (SNB-75 CNS) was 2.41 µM, the TGI (SNB-75 CNS) was 6.5 µM and the GI50 (SK-MEL-28 melanoma) was 1.89 µM. The TGI (SK-MEL-28 melanoma) was 3.51 µM, the GI50 (NCI-H460 lung) was 2 µM and the TGI (NCI-H460 lung) was 3.87 µM. It also gave a GI50 (CAKI-1 renal) of 17.2 µM, a TGI (CAKI-1 renal) of 42.8 µM and a GI50 (SF-539 CNS) of 1.82 µM. It also gave a TGI (SF-539 CNS) of 3.77 µM, a GI50 (IGROV1 ovarian) of 3.25 µM and a TGI (IGROV1 ovarian) of 9.82 µM. For the same compound, the GI50 (DU-145 prostate) was 5.4 µM, the TGI (DU-145 prostate) was 13.6 µM and the GI50 (MALME-3M melanoma) was 1.88 µM. The TGI (MALME-3M melanoma) was 3.98 µM, the GI50 (MOLT-4 leukemia) was 3.39 µM and the TGI (MOLT-4 leukemia) was 9.65 µM. It also gave a GI50 (786-0 renal) of 4.19 µM, a TGI (786-0 renal) of 8.66 µM and a GI50 (OVCAR-3 ovarian) of 2.57 µM. For the same compound, the TGI (OVCAR-3 ovarian) was 6.35 µM, the GI50 (SF-268 CNS) was 1.88 µM and the TGI (SF-268 CNS) was 3.88 µM. For the same compound, the GI50 (SN12C renal) was 4.49 µM, the TGI (SN12C renal) was 11.1 µM and the GI50 (OVCAR-8 ovarian) was 2.44 µM. It also gave a TGI (OVCAR-8 ovarian) of 6.63 µM, a GI50 (BT-549 breast) of 13.3 µM and a TGI (BT-549 breast) of 26.1 µM. For the same compound, the GI50 (PC-3 prostate) was 3.94 µM, the TGI (PC-3 prostate) was 12 µM and the GI50 (RPMI-8226 leukemia) was 2.49 µM. It also gave a TGI (RPMI-8226 leukemia) of 6.48 µM, a GI50 (UACC-257 melanoma) of 1.86 µM and a TGI (UACC-257 melanoma) of 3.49 µM. For the same compound, the GI50 (RXF 393 renal) was 2.91 µM, the TGI (RXF 393 renal) was 7.13 µM and the GI50 (NCI/ADR-RES ovarian) was 28 µM. The TGI (NCI/ADR-RES ovarian) was > 85.9 µM, the GI50 (SK-MEL-2 melanoma) was 11.1 µM and the TGI (SK-MEL-2 melanoma) was 23.3 µM. The GI50 (T-47D breast) was 2.6 µM and the TGI (T-47D breast) was 10.5 µM.
For `O=C(/C=N/O)c1c(-c2ccccc2)[nH]c(-c2ccccc2)c1-c1ccccc1`, the TGI (NCI-H226 lung) was 83.4 µM, the TGI (SF-295 CNS) was 34.2 µM and the TGI (HCC-2998 colon) was 58.1 µM. The TGI (UACC-62 melanoma) was 28.7 µM, the TGI (NCI-H522 lung) was 30.8 µM and the TGI (NCI-H23 lung) was 21.3 µM. It also gave a TGI (HCT-15 colon) of 45.8 µM, a TGI (TK-10 renal) of 40.8 µM and a TGI (MCF7 breast) of 39.7 µM. The TGI (HL-60(TB) leukemia) was > 100 µM, the TGI (MDA-MB-435) was 28.3 µM and the TGI (MDA-MB-231 breast) was 28.7 µM. It also gave a TGI (UO-31 renal) of 36.3 µM, a TGI (U251 CNS) of 32.3 µM and a TGI (LOX IMVI melanoma) of 41.3 µM. The TGI (OVCAR-5 ovarian) was 21.7 µM, the TGI (EKVX NSCLC) was 19 µM and the TGI (HCT-116 colon) was 72.6 µM. The TGI (CCRF-CEM leukemia) was > 100 µM, the TGI (A549 NSCLC) was 45.2 µM and the TGI (M14 melanoma) was 73.6 µM. For the same compound, the TGI (K-562 leukemia) was > 100 µM, the TGI (OVCAR-4 ovarian) was 42.9 µM and the TGI (ACHN renal) was 43.4 µM. For the same compound, the TGI (HS 578T breast) was 85.2 µM, the TGI (COLO 205 colon) was 36.6 µM and the TGI (HOP-62 NSCLC) was > 100 µM. The TGI (SK-MEL-5 melanoma) was 32.8 µM, the TGI (A498 renal) was 62.4 µM and the TGI (KM12 colon) was 28.2 µM. The TGI (SNB-19 CNS) was 34.2 µM, the TGI (HT29 colon) was 61 µM and the TGI (HOP-92 NSCLC) was 67.1 µM. It also gave a TGI (SK-OV-3 ovarian) of 35.1 µM, a TGI (SW-620 colon) of 48.7 µM and a TGI (SNB-75 CNS) of 55.7 µM. It also gave a TGI (SK-MEL-28 melanoma) of 39 µM, a TGI (NCI-H460 lung) of 41.8 µM and a TGI (CAKI-1 renal) of 48.1 µM. The TGI (SF-539 CNS) was 26.9 µM, the TGI (IGROV1 ovarian) was 28.4 µM and the TGI (DU-145 prostate) was 12.3 µM. For the same compound, the TGI (MALME-3M melanoma) was 32.9 µM, the TGI (MOLT-4 leukemia) was 31.1 µM and the TGI (786-0 renal) was > 100 µM. For the same compound, the TGI (OVCAR-3 ovarian) was 58.7 µM, the TGI (SF-268 CNS) was 49.7 µM and the TGI (SN12C renal) was 35.2 µM. It also gave a TGI (BT-549 breast) of 11.3 µM, a TGI (RPMI-8226 leukemia) of 31.4 µM and a TGI (UACC-257 melanoma) of 35 µM. For the same compound, the TGI (RXF 393 renal) was 31.6 µM, the TGI (NCI/ADR-RES ovarian) was 25.5 µM and the TGI (SK-MEL-2 melanoma) was 24 µM. The TGI (T-47D breast) was > 100 µM.
